Data on three molecules can be found in patent publication US7037644B1, “Means and methods for monitoring non-nucleoside reverse transcriptase inhibitor antiretroviral therapy and guiding therapeutic decisions in the treatment of HIV/AIDS” (ViroLogic, Inc., priority 1998, dated 2006).

Structures are written as SMILES. Where “and” joins values, the source holds several entries; their conditions need not be identical. Equal entries are not always repeated. Entries after “also recorded” stand apart in the source; their conditions may differ.

What all share (format): cell-based, HIV-1
One assay deals with Y188L-RTV. Put plainly: Phenotypic susceptibility assay (site directed mutant RTV). The following applies: for loss of susceptibility (fold, IC50) vs wild type control RTV: Y188L alone; for change in susceptibility: mutation at codon 188. The source says:
(§1) The resistance test vectors containing a functional luciferase gene cassette were constructed and host cells were transfected with the resistance test vector DNA. The resistant test vectors contained patient-derived reverse transcriptase and protease sequences that were either susceptible or resistant to the antiretroviral agents, such as nucleoside reverse transcriptase inhibitors, non-nucleoside reverse transcriptase inhibitors and protease inhibitors. The resistance test vector viral particles produced by transfecting the resistance test vector DNA into host cells, either in the presence or absence of protease inhibitors, were used to infect target host cells grown either in the absence of NRTI or NNRTI or in the presence of increasing concentrations of the drug. The amount of luciferase activity produced in infected target host cells in the presence of drug was compared to the amount of luciferase produced in infected target host cells in the absence of drug. Drug resistance was measured as the amount of drug required to inhibit by 50% the luciferase activity detected in the absence of drug (inhibitory concentration 50%, IC50). The IC50 values were determined by plotting percent drug inhibition vs. log10 drug concentration.
(§2) Host cells were seeded in 10-cm-diameter dishes and were transfected several days after plating with resistance test vector plasmid DNA and the envelope expression vector. Transfections were performed using a calcium-phosphate precipitation procedure. The cell culture media containing the DNA precipitate was replaced with fresh medium, from one to 24 hours, after transfection. Cell culture media containing resistance test vector viral particles was harvested one to four days after transfection and was passed through a […] filter before being stored at […]. HIV capsid protein (p24) levels in the harvested cell culture media were determined by an EIA method as described by the manufacturer (SIAC; Frederick, Md.). Before infection, target cells (293 and 293/T) were plated in cell culture media. Control infections were performed using cell culture media from mock transfections (no DNA) or transfections containing the resistance test vector plasmid DNA without the envelope expression plasmid. One to three or more days after infection the media was removed and cell lysis buffer (Promega) was added to each well. Cell lysates were assayed for luciferase activity (FIG. 3). The inhibitory effect of the drug was determined using the following equation: % luciferase inhibition=1−(RLUluc [drug]÷RLUluc)×100 where RLUluc [drug] is the relative light unit of luciferase activity in infected cells in the presence of drug and RLUluc is the Relative Light Unit of luciferase activity in infected cells in the absence of drug. IC50 values were obtained from the sigmoidal curves that were generated from the data by plotting the percent inhibition of luciferase activity vs. the log10 drug concentration. The drug inhibition curves are shown in (FIG. 3).
The Y188L mutation was introduced into the resistance test vector using the mega-primer method for site-directed mutagenesis (Sakar and Sommar, Ibid.). A resistance test vector containing the Y188L mutation (Y188L-RTV) was then tested using the phenotypic assay described earlier and the results were compared to those determined using a genetically defined resistance test vector that was wild type at position 188. We determined the pattern of phenotypic susceptibility to the NNRTIs, delavirdine, nevirapine and efavirenz, in the Y188L-RTV. […] The approximate 100-fold loss of susceptibility to efavirenz was not as high as had been previously reported.

For assay [1], the system named is RTV-1033, patient 98-1033 (RT V106A, V189L, F227L). The assay is described as follows: Phenotypic susceptibility assay (patient RTV). The following applies: patient RTV pool.
Source text: as §1, §2
A resistance test vector was constructed as described in Example 1 from a patient sample designated 98-1033. […]

Another assay relates to K103N-RTV. The assay is described as follows: Phenotypic susceptibility assay (site directed mutant RTV). The following applies: for change in susceptibility: K103N; for loss of susceptibility (fold, IC50) vs wild type control RTV: K103N alone.
Source text: as §1, §2
(§3) The K101E, K103N and G190A mutations were introduced alone and in combination into resistance test vectors using the mega-primer method for site-directed mutagenesis (Sakar and Sommar, Ibid.).
The mutations Y188L, L100I and K103N were introduced alone and in combinationn into resistance test vectors using the mega-primer method for site-directed mutagenesis (Sakar and Sommar, Ibid.).

In the next assay the test system is K101E-G190A-RTV. The description is as above. The following applies: for change in susceptibility (fold, IC50) vs wild type control RTV: K101E and G190A; for change in susceptibility: mutations at codons 101 and 190 (190A).
Source text: as §1, §2, §3

A further assay has as its system K103N-G190A-RTV. The description is as above. The following applies: for loss of susceptibility (fold, IC50) vs wild type control RTV: K103N and G190A; for change in susceptibility: mutations at codons 103 and 190.
Source text: as §1, §2, §3

A further assay concerns G190S-RTV. The assay is described as above. The following applies: for change in susceptibility (fold, IC50) vs wild type control RTV: G190S alone, below 1 = increased susceptibility; for change in susceptibility: serine at position 190, no other NNRTI mutations.
Source text: as §1, §2
Resistance test vectors were constructed containing the G190S and G190A mutations. Mutations were introduced into the resistance test vector using the mega-primer PCR method for site-directed mutagenesis (Sakar and Sommar, Ibid.) Resistance test vectors containing the G190S or G190A mutations (G190S-RTV, or G190A-RTV) were tested using the phenotypic susceptibility assay and the results were compared to that of a genetically defined resistance test vector that was wild type at position G190. […]

Another assay deals with G190A-RTV. The description is as above. The following applies: for change in susceptibility: alanine at position 190, no other NNRTI mutations.
Source text: as §1
as §2, with “IC50 values were obtained from the sigmoidal curves that were generated from the data by plotting the percent inhibition of luciferase activity vs. the log10 drug concentration. The drug inhibition curves are shown in (FIG. 3).” left out

Assay [2] concerns G190S-RTV and G190A-RTV (mutation at codon 190). Described as above. The following applies: G190A or G190S vs wild type reference RTV; also statements on codon 190 alone or with 103/101. The method, then: The resistance test vectors containing a functional luciferase gene cassette were constructed and host cells were transfected with the resistance test vector DNA. The resistant test vectors contained patient-derived reverse transcriptase and protease sequences that were either susceptible or resistant to the antiretroviral agents, such as nucleoside reverse transcriptase inhibitors, non-nucleoside reverse transcriptase inhibitors and protease inhibitors. […] The IC50 values were determined by plotting percent drug inhibition vs. log10 drug concentration.
Host cells were seeded in 10-cm-diameter dishes and were transfected several days after plating with resistance test vector plasmid DNA and the envelope expression vector. […] HIV capsid protein (p24) levels in the harvested cell culture media were determined by an EIA method as described by the manufacturer (SIAC; Frederick, Md.). […] The inhibitory effect of the drug was determined using the following equation: % luciferase inhibition=1−(RLUluc [drug]÷RLUluc)×100 where RLUluc [drug] is the relative light unit of luciferase activity in infected cells in the presence of drug and RLUluc is the Relative Light Unit of luciferase activity in infected cells in the absence of drug. […]

On to `CC(C)Nc1cccnc1N1CCN(C(=O)c2cc3cc(NS(C)(=O)=O)ccc3[nH]2)CC1` [delavirdine], for which the “loss of susceptibility (fold, IC50) vs wild type control RTV” value (from here on “loss of susceptibility (fold, IC50)”) in the assay with Y188L-RTV is on record as 9 fold; in the assay on K103N-RTV, 50 fold; in the assay with K103N-G190A-RTV, 40 fold. In addition, the “change in susceptibility” value in the assay with Y188L-RTV was “slight decrease”; in the assay on K103N-RTV, “reduced susceptibility; also recorded: resistance”; in the assay on K101E-G190A-RTV it was “slight loss of susceptibility; also recorded: no change”; with K103N-G190A-RTV, “slight loss of susceptibility; also recorded: moderate decrease”; in the assay on G190S-RTV it was “increase”; in the assay with G190A-RTV it was “increase”. The entries for the “change in susceptibility” value (in the assay on G190A-RTV (listed as delviridine); in assay [2]) were “increased susceptibility” and “slightly more susceptible; also recorded: slightly increase susceptibility; also recorded: slight increase”, respectively. In addition, in assay [1], the “decrease in susceptibility (fold, IC50)” value is 30 fold. The “change in susceptibility (fold, IC50) vs wild type control RTV” value (from here on “change in susceptibility (fold, IC50)”) was found to be 2 fold in the assay on K101E-G190A-RTV and 0.5 fold in the assay on G190S-RTV.
On to `O=C1Nc2ccc(Cl)cc2[C@@](C#CC2CC2)(C(F)(F)F)O1` [efavirenz], for which the “loss of susceptibility (fold, IC50)” value was 109 fold and ~100 fold and 110 fold in the assay on Y188L-RTV; 30 fold in the assay on K103N-RTV; 215 fold in the assay on K103N-G190A-RTV. Moreover, the “change in susceptibility” value in the assay on Y188L-RTV, in the assay on K101E-G190A-RTV and in the assay with K103N-G190A-RTV was “significant decrease” in each case. Besides, the “decrease in susceptibility (fold, IC50)” value in assay [1] is given as 200 fold. In addition, the “change in susceptibility (fold, IC50)” value is 120 fold in the assay with K101E-G190A-RTV; 8 fold and 7.6 fold in the assay on G190S-RTV; 8 fold in the assay on G190A-RTV (G190A alone).
Take `Cc1ccnc2c1NC(=O)c1cccnc1N2C1CC1` [nevirapine]: the “loss of susceptibility (fold, IC50)” value was “greater than 800 fold” in the assay on Y188L-RTV, 55 fold with K103N-RTV and “greater than 800 fold” in the assay with K103N-G190A-RTV. For the same molecule, the “change in susceptibility” value is given as “substantial decrease” in the assay with Y188L-RTV; “reduced susceptibility; also recorded: resistance” in the assay on K103N-RTV; “substantial decrease” in the assay on K101E-G190A-RTV; “substantial decrease” in the assay with K103N-G190A-RTV; “decrease” in the assay with G190S-RTV; “decrease” in the assay on G190A-RTV. The “change in susceptibility” value in assay [2] was “markedly less susceptible; also recorded: greatly reduce susceptibility; also recorded: large decrease”. Besides, the “decrease in susceptibility (fold, IC50)” value in assay [1] is recorded as “greater than 800 fold”. Also, the “change in susceptibility (fold, IC50)” value is listed as “greater than 800 fold” in the assay on K101E-G190A-RTV and 75 fold in the assay on G190S-RTV.
